Measurements as given in ChEMBL document CHEMBL5241061, “Advance of structural modification of nucleosides scaffold” (Eur J Med Chem, 2021).

Key:
Format in all cases: functional, organism-based
[1] = tested on: Human immunodeficiency virus; assay: Antiviral activity against Human immunodeficiency virus; conditions: Human immunodeficiency virus 1
Hepatitis B virus = assay: Antiviral activity against Hepatitis B virus
[2] = tested on: Human immunodeficiency virus; assay: Antiviral activity against Human immunodeficiency virus infected in MT4 cell incubated for 72 hrs by CPE based microscopic assay; conditions: Human immunodeficiency virus 1, MT4, 72 h

Compound | EC50 [1] [µM] | EC50 (Hepatitis B virus) [µM] | EC50 [2] [µM]
Nc1ncnc2c1ncn2[C@@H]1C=C[C@H](CO)O1 | 0.38 | 1.2 | 
Nc1ncnc2c1ncn2[C@@H]1CC[C@H](CO)O1 | 8.2 | 6 | 
Cc1cn(C2CC(N=[N+]=[N-])C(CO[PH](=O)OC3CCC4(C)C(C=CC5C4CCC4(C)C(C(C)CCCC(C)C)CCC54)C3)O2)c(=O)[nH]c1=O (configuration not stated) |  |  | 0.001
Nc1ncnc2c1ncn2[C@H]1O[C@@H](CO)[C@H](O)C1(F)F | 3.4 | 20 | 
